In one assay the target is T1, human TLR7 (Homo sapiens, UniProt Q9NYK1).
T1 construct: host or cells: HEK-Blue cells
T1 sequence (Q9NYK1 27-1049): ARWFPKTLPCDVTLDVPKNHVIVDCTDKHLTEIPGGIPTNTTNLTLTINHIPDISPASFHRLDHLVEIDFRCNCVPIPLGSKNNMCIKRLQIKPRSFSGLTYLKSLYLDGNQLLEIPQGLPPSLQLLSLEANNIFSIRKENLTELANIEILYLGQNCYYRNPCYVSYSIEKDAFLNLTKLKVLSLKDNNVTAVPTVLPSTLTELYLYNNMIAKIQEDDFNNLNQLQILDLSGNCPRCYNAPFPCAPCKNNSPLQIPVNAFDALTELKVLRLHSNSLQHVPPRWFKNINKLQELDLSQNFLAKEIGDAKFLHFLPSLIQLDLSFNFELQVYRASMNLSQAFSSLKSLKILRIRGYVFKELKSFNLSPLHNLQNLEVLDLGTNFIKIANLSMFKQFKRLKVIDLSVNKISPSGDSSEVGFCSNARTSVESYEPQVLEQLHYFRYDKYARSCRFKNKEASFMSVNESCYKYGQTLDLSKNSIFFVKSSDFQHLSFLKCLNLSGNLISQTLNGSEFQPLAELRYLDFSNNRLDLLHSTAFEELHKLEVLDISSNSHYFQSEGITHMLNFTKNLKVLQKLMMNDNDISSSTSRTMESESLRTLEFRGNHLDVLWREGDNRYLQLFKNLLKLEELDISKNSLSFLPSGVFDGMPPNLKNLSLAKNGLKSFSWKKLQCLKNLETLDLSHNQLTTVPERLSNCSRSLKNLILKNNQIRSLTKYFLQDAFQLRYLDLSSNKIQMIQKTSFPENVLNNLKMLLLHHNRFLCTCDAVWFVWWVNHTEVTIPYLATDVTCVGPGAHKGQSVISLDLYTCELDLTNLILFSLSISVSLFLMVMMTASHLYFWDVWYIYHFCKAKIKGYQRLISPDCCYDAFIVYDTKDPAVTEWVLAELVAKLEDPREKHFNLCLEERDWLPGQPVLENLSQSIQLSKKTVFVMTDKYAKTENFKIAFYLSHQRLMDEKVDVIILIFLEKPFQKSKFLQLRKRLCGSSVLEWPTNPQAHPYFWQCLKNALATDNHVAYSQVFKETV
The experiment in a line: TLR7 inhibition reporter assay (HEK-Blue cells, SEAP reporter, gardiquimod stimulation). It is filed as cell-based. As to conditions: HEK-Blue cells overexpressing human TLR7, gardiquimod 7.5 μM. The method, boiled down:
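In this cell reporter format, test compounds at 0.05 nM-50 μM final incubate 22 h with seeded cells (TLR7 15000, TLR8 20,000 per well). SEAP read-out by HEK-Blue Detection medium yields % inhibition relative to agonist/DMSO and known-inhibitor wells.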

The next assay addresses T2, human TLR9 (Homo sapiens, UniProt Q9NR96).
T2 construct: host or cells: HEK-Blue cells
T2 sequence (Q9NR96 26-1032): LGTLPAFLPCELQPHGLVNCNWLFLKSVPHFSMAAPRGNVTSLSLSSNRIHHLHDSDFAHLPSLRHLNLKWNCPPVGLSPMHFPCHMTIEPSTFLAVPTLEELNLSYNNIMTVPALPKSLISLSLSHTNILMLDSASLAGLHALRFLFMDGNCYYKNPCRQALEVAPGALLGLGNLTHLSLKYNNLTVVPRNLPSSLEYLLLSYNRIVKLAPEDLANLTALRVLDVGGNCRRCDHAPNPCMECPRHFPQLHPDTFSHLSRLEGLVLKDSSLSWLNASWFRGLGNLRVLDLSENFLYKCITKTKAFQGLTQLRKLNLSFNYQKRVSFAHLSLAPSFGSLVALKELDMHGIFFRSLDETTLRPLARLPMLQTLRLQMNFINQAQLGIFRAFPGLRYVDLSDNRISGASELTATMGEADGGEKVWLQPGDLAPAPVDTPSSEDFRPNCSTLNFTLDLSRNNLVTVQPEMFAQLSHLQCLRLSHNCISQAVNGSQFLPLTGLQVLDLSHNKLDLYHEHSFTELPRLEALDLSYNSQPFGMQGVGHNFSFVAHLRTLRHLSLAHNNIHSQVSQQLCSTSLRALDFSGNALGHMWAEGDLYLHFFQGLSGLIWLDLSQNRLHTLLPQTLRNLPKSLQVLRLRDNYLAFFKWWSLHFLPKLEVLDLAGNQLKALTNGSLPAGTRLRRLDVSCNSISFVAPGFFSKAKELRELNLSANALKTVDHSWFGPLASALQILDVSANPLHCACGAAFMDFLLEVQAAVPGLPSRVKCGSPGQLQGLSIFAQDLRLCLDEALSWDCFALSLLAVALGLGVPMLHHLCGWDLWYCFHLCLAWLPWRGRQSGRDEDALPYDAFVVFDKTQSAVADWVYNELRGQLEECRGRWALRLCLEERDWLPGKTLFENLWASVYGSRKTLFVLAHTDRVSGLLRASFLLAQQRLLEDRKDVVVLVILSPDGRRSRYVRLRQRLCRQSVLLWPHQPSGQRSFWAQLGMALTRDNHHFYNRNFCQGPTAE
In words: TLR9 inhibition reporter assay (HEK-Blue cells, SEAP reporter, ODN2006 stimulation). As to conditions: HEK-Blue cells overexpressing human TLR9, ODN2006 5 nM. The class given is cell-based. Put shortly:
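Dose–response from 0.05 nM to 50 μM was run in HEK-Blue human TLR7, TLR8 and TLR9 reporter cells. After 30 min at room temperature with compound, ligand was added (TLR7 gardiquimod 7.5 μM; TLR8 R848 15.9 μM; TLR9 ODN2006 5 nM) and SEAP measured next day, at 22 h.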

Structures are written as SMILES.

Take `COc1ccc(-c2[nH]c3ccc(C4CCN(CC(=O)NCCCN(C)C)CC4)cc3c2CC(F)(F)F)cc1OC` [Example 382, 2-(4-(2-(3,4-dimethoxyphenyl)-3-(2,2,2-trifluoroethyl)-1H-indol-5-yl)piperidin-1-yl)-N-(3-(dimethylamino)propyl)acetamide]: the IC50 came out at 17 nM on human TLR7 and 555 nM at human TLR9.

Turning to `CCN(CC)C(=O)C1CCCN(CC(=O)N2CCC(c3ccc4[nH]c(-c5ccc(OC)c(OC)c5)c(C)c4c3)CC2)C1` (stereo not shown) [Example 404, 1-(2-(4-(2-(3,4-dimethoxyphenyl)-3-methyl-1H-indol-5-yl)piperidin-1-yl)-2-oxoethyl)-N,N-diethylpiperidine-3-carboxamide], the IC50 on human TLR7 was determined as 3150 nM; against human TLR9, 8640 nM.

For `COc1ccc(-c2[nH]c3ccc(C4CCN(C(=O)Cc5cccnc5)CC4)cc3c2CC(F)(F)F)cc1OC` [Example 335, 1-(4-(2-(3,4-dimethoxyphenyl)-3-(2,2,2-trifluoroethyl)-1H-indol-5-yl)piperidin-1-yl)-2-(pyridin-3-yl)ethan-1-one], the half-maximal inhibitory concentration (IC50) against human TLR7 came to 331 nM; against human TLR9, 15300 nM.

For the compound `COc1ccc(-c2[nH]c3ccc(C4CCNCC4F)cc3c2C(C)C)cc1OC` (single isomer, unassigned) [Example 322, 2-(3,4-dimethoxyphenyl)-5-(3-fluoropiperidin-4-yl)-3-isopropyl-1H-indole], the IC50 came out at 21 nM against human TLR7 and 2790 nM against human TLR9.

Consider `COc1ccc(-c2[nH]c3ccc(C4CCN(CC(=O)N5CCC(C(N)=O)CC5)CC4)cc3c2CC(F)(F)F)cc1OC` [Example 369, 1-(2-(4-(2-(3,4-dimethoxyphenyl)-3-(2,2,2-trifluoroethyl)-1H-indol-5-yl)piperidin-1-yl)acetyl)piperidine-4-carboxamide], for which the half-maximal inhibitory concentration (IC50) was 101 nM at human TLR7 and 1950 nM against human TLR9.

As for `COc1ccc(-c2[nH]c3ccc(C4CCN(CC(=O)N5CCC(N(C)C)CC5)CC4)cc3c2CC(F)(F)F)cc1OC` [Example 364, 2-(4-(2-(3,4-dimethoxyphenyl)-3-(2,2,2-trifluoroethyl)-1H-indol-5-yl)piperidin-1-yl)-1-(4-(dimethylamino)piperidin-1-yl)ethan-1-one], the IC50 against human TLR7 is 23 nM; against human TLR9, 563 nM.

Turning to `COc1ccc(-c2[nH]c3ccc(C4CCN(C(=O)Cc5ccc(N(C)C)cc5)CC4)cc3c2CC(F)(F)F)cc1OC` [Example 338, 1-(4-(2-(3,4-dimethoxyphenyl)-3-(2,2,2-trifluoroethyl)-1H-indol-5-yl)piperidin-1-yl)-2-(4-(dimethylamino)phenyl)ethan-1-one], the half-inhibitory concentration (IC50) at human TLR7 is 1490 nM; against human TLR9, at least 50000 nM.

On to `COc1ccc(-c2[nH]c3ccc(C4CCN(C(=O)CNC[C@@H](O)CO)CC4)cc3c2C)cc1OC` [Example 405, (R)-2-((2,3-dihydroxypropyl)amino)-1-(4-(2-(3,4-dimethoxyphenyl)-3-methyl-1H-indol-5-yl)piperidin-1-yl)ethan-1-one], for which the IC50 was found to be 18300 nM on human TLR7 and 13500 nM against human TLR9.

`COc1ccc(-c2[nH]c3ccc(C4CCNC(=O)C4)cc3c2C(C)C)cc1OC` (stereo not shown) [Example 326, 4-(2-(3,4-dimethoxyphenyl)-3-isopropyl-1H-indol-5-yl)piperidin-2-one]: the half-inhibitory concentration (IC50) was 127 nM at human TLR7 and at least 50000 nM against human TLR9.

In the case of `COc1ccc(-c2[nH]c3ccc(C4CCN(C(=O)CN(C)C)CC4)cc3c2CC(F)(F)F)cc1OC` [Example 354, 1-(4-(2-(3,4-dimethoxyphenyl)-3-(2,2,2-trifluoroethyl)-1H-indol-5-yl)piperidin-1-yl)-2-(dimethylamino)ethan-1-one], the values for the IC50 at human TLR7 and at human TLR9 were 22 nM and 2150 nM, respectively.

Turning to `COc1ccc(-c2[nH]c3ccc(C4CCN(CC(=O)N5CCN(c6ncccn6)CC5)CC4)cc3c2CC(F)(F)F)cc1OC` [Example 368, 2-(4-(2-(3,4-dimethoxyphenyl)-3-(2,2,2-trifluoroethyl)-1H-indol-5-yl)piperidin-1-yl)-1-(4-(pyrimidin-2-yl)piperazin-1-yl)ethan-1-one], the results for the IC50 on human TLR7 and on human TLR9 were 159 nM and 1330 nM, respectively.

Take `COc1ccc(-c2[nH]c3ccc(C4CCN(C)CC4)cc3c2CC(F)(F)F)cc1OC` [Example 355, 2-(3,4-dimethoxyphenyl)-5-(1-methylpiperidin-4-yl)-3-(2,2,2-trifluoroethyl)-1H-indole]: the IC50 against human TLR7 stood at 19 nM; against human TLR9 it was 2280 nM.

For the compound `COc1ccc(-c2[nH]c3ccc(C4CCN(C(=O)Cc5c[nH]c6ccccc56)CC4)cc3c2CC(F)(F)F)cc1OC` [Example 332, 1-(4-(2-(3,4-dimethoxyphenyl)-3-(2,2,2-trifluoroethyl)-1H-indol-5-yl)piperidin-1-yl)-2-(1H-indol-3-yl)ethan-1-one], the figures for the IC50 against human TLR7 and on human TLR9 were 1860 nM and at least 50000 nM, respectively.

Turning to `COc1ccc(-c2[nH]c3ccc(C4CCN(C(=O)CN(C)C)CC4)cc3c2C(O)C(F)(F)F)cc1OC` (stereo not shown) [Example 395, 1-(4-(2-(3,4-dimethoxyphenyl)-3-(2,2,2-trifluoro-1-hydroxyethyl)-1H-indol-5-yl)piperidin-1-yl)-2-(dimethylamino)ethan-1-one], the half-inhibitory concentration (IC50) against human TLR7 came out at 61 nM; at human TLR9, 13200 nM.

In the case of `COc1ccc(-c2[nH]c3ccc(C4CCNCC4F)cc3c2C(C)C)cc1OC` (single isomer, unassigned) [Example 323, 2-(3,4-dimethoxyphenyl)-5-(3-fluoropiperidin-4-yl)-3-isopropyl-1H-indole], the IC50 turned out to be 42 nM against human TLR7 and 2870 nM against human TLR9.

Take `CCN(CC)C(=O)C1CCCN(CC(=O)N2CCC(c3ccc4[nH]c(-c5ccc(OC)c(OC)c5)c(C5CCOCC5)c4c3)CC2)C1` (stereo not shown) [Example 392, 1-(2-(4-(2-(3,4-dimethoxyphenyl)-3-(tetrahydro-2H-pyran-4-yl)-1H-indol-5-yl)piperidin-1-yl)-2-oxoethyl)-N,N-diethylpiperidine-3-carboxamide]: the IC50 against human TLR7 came out at 681 nM; against human TLR9, 1800 nM.

As for `COc1ccc(-c2[nH]c3ccc(C4CCN(C(=O)NCCc5ccccc5)CC4)cc3c2CC(F)(F)F)cc1OC` [Example 357, 4-(2-(3,4-dimethoxyphenyl)-3-(2,2,2-trifluoroethyl)-1H-indol-5-yl)-N-phenethylpiperidine-1-carboxamide], the half-inhibitory concentration (IC50) against human TLR7 is 690 nM; against human TLR9, at least 50000 nM.

Values taken from patent US11180474B2 (BRISTOL-MYERS SQUIBB COMPANY, priority 2016, dated 2021).
